Read-outs that look alike come from different tables or passages of the source. Residues, ends and D or L forms follow the SMILES beside them. *: point of attachment. Cbz = O=C(OCc1ccccc1)*; CH2F = FC*
Tests used:
EV-D68 3C protease = EV-D68 3C protease (Human enterovirus D68, UniProt Q68T42); assay type: biochemical
poliovirus 3C protease = poliovirus 3C protease (Poliovirus type 1, UniProt P03300); test: biochemical; assay type: biochemical
EV-D68 2A protease [1] = molecular target: T1, EV-D68 2A protease (Human enterovirus D68, UniProt A0A097BW12); test: EV-D68 VP1·2A self-processing (intra-molecular cleavage) in translation extracts; assay type: biochemical
T1 sequence (A0A097BW12 862-1008): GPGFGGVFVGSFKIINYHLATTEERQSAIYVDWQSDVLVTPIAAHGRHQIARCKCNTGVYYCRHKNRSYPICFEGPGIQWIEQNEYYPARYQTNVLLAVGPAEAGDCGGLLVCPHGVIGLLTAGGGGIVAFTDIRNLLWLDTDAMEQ

EV-D68 2A protease [2] = molecular target: T1, EV-D68 2A protease; test: biochemical; assay type: biochemical
EV-D68 2A N84T mutant = molecular target: T2, EV-D68 2A N84T mutant (Human enterovirus D68, UniProt Q68T42, N945T); test: EV-D68 VP1·2A N84T (telaprevir resistant mutant) self-processing, pulse chase in translation extracts; assay type: biochemical
T2 sequence (Q68T42 553-1008 N945T): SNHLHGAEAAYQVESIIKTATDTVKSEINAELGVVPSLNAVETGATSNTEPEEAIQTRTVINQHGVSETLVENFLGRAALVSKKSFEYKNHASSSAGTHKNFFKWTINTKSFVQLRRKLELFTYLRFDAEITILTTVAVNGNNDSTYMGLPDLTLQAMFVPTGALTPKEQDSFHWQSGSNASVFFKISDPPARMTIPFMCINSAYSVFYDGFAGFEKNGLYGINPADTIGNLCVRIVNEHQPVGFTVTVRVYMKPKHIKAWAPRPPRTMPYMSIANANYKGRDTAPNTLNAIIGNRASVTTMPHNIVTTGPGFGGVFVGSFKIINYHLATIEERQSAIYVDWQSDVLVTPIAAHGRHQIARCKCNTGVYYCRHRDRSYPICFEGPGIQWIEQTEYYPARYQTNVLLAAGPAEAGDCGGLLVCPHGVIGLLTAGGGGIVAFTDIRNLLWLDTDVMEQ

poliovirus 2A protease [3] = molecular target: T3, poliovirus 2A protease (Poliovirus type 1, UniProt P03300)
Target sequence in this assay (P03300 580-1030 limits assumed): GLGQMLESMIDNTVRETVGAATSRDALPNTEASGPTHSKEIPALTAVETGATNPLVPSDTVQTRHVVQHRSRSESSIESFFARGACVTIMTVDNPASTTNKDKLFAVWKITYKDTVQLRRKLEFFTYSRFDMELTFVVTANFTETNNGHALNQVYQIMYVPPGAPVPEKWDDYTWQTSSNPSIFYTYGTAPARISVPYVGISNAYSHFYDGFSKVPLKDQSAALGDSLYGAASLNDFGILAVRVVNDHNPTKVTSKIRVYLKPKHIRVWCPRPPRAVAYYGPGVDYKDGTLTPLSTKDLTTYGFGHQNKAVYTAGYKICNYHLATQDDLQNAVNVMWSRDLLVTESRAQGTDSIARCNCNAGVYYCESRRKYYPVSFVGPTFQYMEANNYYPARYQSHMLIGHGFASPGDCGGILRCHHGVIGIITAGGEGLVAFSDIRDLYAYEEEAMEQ

poliovirus 2A protease [4] = molecular target: T3, poliovirus 2A protease; settings: read-out: IC50, eIF4G (inter-molecular) cleavage by poliovirus 2A
Target sequence in this assay (P03300 882-1030 limits assumed): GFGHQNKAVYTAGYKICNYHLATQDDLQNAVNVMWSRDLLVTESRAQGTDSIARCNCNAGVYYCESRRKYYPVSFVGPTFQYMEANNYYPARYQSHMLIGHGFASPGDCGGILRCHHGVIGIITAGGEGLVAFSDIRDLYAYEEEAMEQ

rhinovirus protease = settings: cited from earlier work

Sequence of poliovirus 3C protease (P03300 1457-1748 limits assumed): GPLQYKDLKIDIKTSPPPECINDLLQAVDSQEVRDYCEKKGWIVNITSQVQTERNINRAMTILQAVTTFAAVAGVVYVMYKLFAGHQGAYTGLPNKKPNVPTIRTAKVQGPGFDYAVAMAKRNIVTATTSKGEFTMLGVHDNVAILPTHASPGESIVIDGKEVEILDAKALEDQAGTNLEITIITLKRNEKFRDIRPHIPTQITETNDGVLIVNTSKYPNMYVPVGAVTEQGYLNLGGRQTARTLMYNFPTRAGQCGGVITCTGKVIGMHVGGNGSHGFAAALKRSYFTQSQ
Sequence of EV-D68 3C protease (Q68T42 1438-1731 limits assumed): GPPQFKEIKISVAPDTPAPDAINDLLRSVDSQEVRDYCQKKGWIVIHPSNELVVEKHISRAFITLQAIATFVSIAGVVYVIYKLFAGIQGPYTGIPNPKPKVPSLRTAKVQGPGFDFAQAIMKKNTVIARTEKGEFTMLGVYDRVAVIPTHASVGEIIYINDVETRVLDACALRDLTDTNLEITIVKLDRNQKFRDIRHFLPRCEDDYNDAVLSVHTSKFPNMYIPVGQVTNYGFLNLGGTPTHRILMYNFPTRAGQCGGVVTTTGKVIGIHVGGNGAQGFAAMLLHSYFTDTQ

SMILES: CCOC(=O)/C=C/[C@H](C[C@@H]1CCNC1=O)NC(=O)[C@@H](CC(=O)[C@@H](NC(=O)c1cc(C)on1)C(C)C)Cc1ccc(F)cc1 [Rupintrivir]
- inhibition of EV-D68 3ABC processing, concentration curve (EV-D68 3C protease): near-complete inhibition
- inhibition of self-processing, EV-D68 intra-molecular 3ABC processing, pulse chase (EV-D68 3C protease): ~100%
- inhibition of poliovirus 3ABC processing, concentration curve (poliovirus 3C protease): near-complete inhibition
- inhibition of self-processing, poliovirus inter-molecular 3ABC processing, pulse chase (poliovirus 3C protease): ~100%
- IC50 (poliovirus 3C protease; IC50, Poliovirus 3ABC (inter-molecular) cleavage): 0.76 µM
- IC50 (poliovirus 3C protease; IC50, inter-molecular cleavage of poliovirus 3ABC): ~0.76 µM

SMILES: CCC[C@H](NC(=O)[C@@H]1[C@H]2CCC[C@H]2CN1C(=O)[C@@H](NC(=O)[C@@H](NC(=O)c1cnccn1)C1CCCCC1)C(C)(C)C)C(=O)C(=O)NC1CC1 [Telaprevir]
- rate of VP1·2A self-processing, pulse chase, WT construct (EV-D68 2A protease [1]; 1 µM telaprevir): significantly decreased
- inhibition of intra-molecular processing of VP1·2A (EV-D68 2A protease [1]; 1-µM telaprevir, maximum concentration testable): 20%
- fold higher IC50 for intra-molecular VP1·2A cleavage than for inter-molecular eIF4G cleavage (EV-D68 2A protease [1]; EV-D68 2A): more than 20 fold
- IC50 (EV-D68 2A protease [1]; approximate, translation extracts, drug added at initiation of translation): 3.96 µM
- inhibition of inter-molecular processing of eIF4G (EV-D68 2A protease [2]): fully inhibited
- IC50 (EV-D68 2A protease [2]; IC50, eIF4G (inter-molecular) cleavage by EV-D68 2A): 0.19 µM
- IC50 (EV-D68 2A protease [2]; IC50, inter-molecular cleavage of eIF4G by EV-D68 2A): ~0.2 µM
- N84T mutant self-processing, pulse chase in the presence of telaprevir (EV-D68 2A N84T mutant): not inhibited

SMILES: CSCCC(NC(=O)C(C)NC(=O)C(NC(=O)OCc1ccccc1)C(C)C)C(=O)CF (stereo not drawn) [zVAM.fmk] (Cbz-Val-Ala-Met-CH2F; configuration not given here)
- inhibition of VP1·2A cis cleavage, pulse chase (poliovirus 2A protease [3]): significant inhibition
- IC50 (poliovirus 2A protease [3]; read-out: IC50, Poliovirus VP1·2A (intra-molecular) cleavage): 1570 µM
- IC50 (poliovirus 2A protease [3]; read-out: IC50, intra-molecular poliovirus VP1·2A cleavage): ~1600 µM
- IC50 (poliovirus 2A protease [4]): 18.9 µM
- concentration of optimal effects on rhinovirus VP1·2A precursor processing and eIF4G cleavage (rhinovirus protease): 200 µM

— article PMC10734437, “Differential inhibition of intra- and inter-molecular protease cleavages by antiviral compounds” (Journal of Virology, 2023)
